Measurements as given in patent US20100111992A1, “CYTOM[…] AND METHODS OF USE THEREOF” (THE REGENTS OF THE UNIVERSITY OF CALIFORNIA, priority 2006, published 2010).

Tests used:
Format in all cases: cell-based, human
PD-L1 (a PD-1 ligand) = experiment: Surface expression of PD-L1; conditions: Donor CMV001 vs Donor BB008, FIG. 10
PD-L2 (a PD-1 ligand) = experiment: Surface expression of PD-L2; conditions: Donor CMV001 vs Donor BB008, FIG. 11
PD-1 = PD-1 Taqman; conditions: for ΔCT (BB011) / ΔΔCT(BB011): Donor BB011; for ΔCT (BB011): No Pep 3.57; for ΔΔCT(BB011) / ΔΔCT(BB013) / ΔΔCT(BB008) / ΔΔCT(CMV001): relative to No Pep; for ΔCT(BB013) / ΔΔCT(BB013): Donor BB013; for ΔCT(BB013): No Pep 4.745; for ΔCT (BB008) / ΔΔCT(BB008): Donor BB008; for ΔCT (BB008): No Pep 6.4; for ΔCT(CMV001) / ΔΔCT(CMV001): Donor CMV001; for ΔCT(CMV001): No Pep 5.08
[1] = test system: CD4+ induced cells (antigen-stimulated T effector cells); experiment: Proliferation assay of CD4+ induced cells (3H incorporation); conditions: for stimulation index: as compared to cells without peptide
Method: (§1) These experiments focus on confirming the in vitro recognition of the novel class I and class II CMV epitopes predicted to be strong MHC binders by validated computer algorithms using T cells from CMV-positive healthy donors. Phenotypical analysis of CD4+ T cell effectors included a marker of activation (CD69) as well as T cell inflammatory cytokines (TNFα, IFNγ, and IL-2). Functional analysis of CD4+ and CD8+ T cell effectors was measured by proliferative epitope-specific responses via ^3H incorporation and IFNγ expression measured by ELISA, respectively.
Wells are then pulsed with 1 μCi of ^3H for the last 18 hours. Proliferation is then measured by calculating the absorption of ^3H on a beta counter. PHA is a positive control while APCs alone are the negative control. This translates into stimulation indices of 30 and 45.8 in antigen-specific proliferation assays as compared to cells without peptide.
Antigen-stimulated T effector cells are incubated with autologous, irradiated total peripheral blood mononuclear cells for 96 hours. Wells are pulsed with 1 μCi of ^3H for the last 18 hours. Proliferation is then measured by calculating the absorption of ^3H on a beta counter. APCs alone are the negative control.
Data from the six donors SA001, SA005, SA006, BB006, BB008, CMV001, BB011, and BB013 are shown. No peptide versus 3DR (P<0.001); no peptide versus 4DR (P<0.05); 1DR versus 3DR (P<0.05); 2DR versus 3DR (P<0.01); and 3DR versus 6DR (P<0.05).

enriched CD4+ cells = experiment: Intracellular IL-2 expression in enriched CD4+ cells; conditions: for expression of IL-2 as compared to no peptide: FIG. 2, in words; for expression of IL-2 in CD4+ cells: FIG. 2, day 17, cells without peptide 3.18%
Method: as §1
Enriched CD4+ cells are incubated with peptide-pulsed irradiated autologous PBMCs, restimulated with peptide on day 7, stimulated with low-dose IL-2 (20 U/ml) on day 9, and then evaluated for intracellular cytokine production on day 17. FIG. 2A illustrates no peptide, while FIGS. 2B and 2C show stimulation by peptides 1DR and 4DR, respectively.

enriched CD4 cells = experiment: Intracellular TNFα in CD4 cells (FACS); conditions: for immunogenicity (reflected by increased TNFα), CMV-infected subject vs healthy CMV+ subject: Donor CMV001 vs Donor BB008, FIG. 7; for TNFα synthesis as compared to control: FIG. 4, donors SA005 and SA006, in words; for TNFα stimulation (FACS data): over multiple HLA-type donors; for immunogenicity reflected by TNFα: six donors
Method: as §1
In addition, these cells are all chemokine receptor CCR7 negative, reflecting their T effector status.
Enriched CD4 cells are incubated with peptide-pulsed irradiated autologous peripheral blood mononuclear cells, restimulated with peptide on day 7, stimulated with low-dose IL-2 (20 U/ml) on day 10 and 14, and then evaluated for intracellular cytokine production on day 17.

CD4+ T cell effectors = experiment: IFNg in CD4 cells (FACS); conditions: for immunogenicity (reflected by increased IFNg), CMV-infected subject vs healthy CMV+ subject: Donor CMV001 vs Donor BB008, FIG. 8; for IFNg stimulation (FACS data): over multiple HLA-type donors; for immunogenicity reflected by IFNg: six donors
Method: as §1

[2] = test system: PD-1 (programmed cell death-1); experiment: Surface expression of PD-1; conditions: Donor CMV001 vs Donor BB008, FIG. 9
From the text: This correlates with latency versus infection in the two subjects.

CD8+ T cell effectors = experiment: IFNγ expression measured by ELISA, CD8+ T cell effectors (class I peptides)
Method: as §1, with “As such, these” for “These”, “confirming that” for “confirming”
as §1

[3] = FIG. 1, 96 hours with autologous irradiated PBMCs, 3H last 18 hours
[4] = excluding CMV-infected subject (CMV001), FIG. 12
[5] = including CMV-infected subject (CMV001), FIG. 13

Sequence: AGILARNLVPMVATV [6DR, human CMV pp65-derived class II peptide, Human (DRB1)]
- surface expression of PD-L1, CMV-infected subject vs healthy CMV+ subject (PD-L1 (a PD-1 ligand)): more surface expression of PD-L1
- surface expression of PD-L2, CMV-infected subject vs healthy CMV+ subject (PD-L2 (a PD-1 ligand)): more surface expression of PD-L2
- ΔCT (BB011) (PD-1): 3.845
- ΔΔCT(BB011) (PD-1): 0.275
- ΔCT(BB013) (PD-1): 5.05
- ΔΔCT(BB013) (PD-1): 0.305

Sequence: DVYYTSAFVFPTKDV [4DR]
- proliferation, counts per minute [1, 3]: 15,572 cpm
- stimulation index ([1]; FIG. 1): 45.8
- expression of IL-2 as compared to no peptide (enriched CD4+ cells): stimulate expression of IL-2
- expression of IL-2 in CD4+ cells (enriched CD4+ cells): 15.13%
- immunogenicity (reflected by increased TNFα), CMV-infected subject vs healthy CMV+ subject (enriched CD4 cells): greater than in a healthy CMV+ subject
- TNFα synthesis as compared to control (enriched CD4 cells): stimulate TNFα synthesis
- TNFα stimulation (FACS data) (enriched CD4 cells): peptide-specific TNFα and IFNg stimulation
- immunogenicity reflected by TNFα (enriched CD4 cells; [4]): increased TNFα and IFNg
- immunogenicity reflected by TNFα (enriched CD4 cells; [5]): increased TNFα and IFNg
- immunogenicity (reflected by increased IFNg), CMV-infected subject vs healthy CMV+ subject (CD4+ T cell effectors): greater than in a healthy CMV+ subject
- IFNg stimulation (FACS data) (CD4+ T cell effectors): peptide-specific TNFα and IFNg stimulation
- immunogenicity reflected by IFNg (CD4+ T cell effectors; [4]): increased TNFα and IFNg
- immunogenicity reflected by IFNg (CD4+ T cell effectors; [5]): increased TNFα and IFNg
- surface expression of PD-1, CMV-infected subject vs healthy CMV+ subject [2]: more surface expression of PD-1
- surface expression of PD-L1, CMV-infected subject vs healthy CMV+ subject (PD-L1 (a PD-1 ligand)): more surface expression of PD-L1
- surface expression of PD-L2, CMV-infected subject vs healthy CMV+ subject (PD-L2 (a PD-1 ligand)): more surface expression of PD-L2
- ΔCT (BB008) (PD-1): 1.185
- ΔΔCT(BB008) (PD-1): −5.215
- ΔCT (BB011) (PD-1): 3.345
- ΔΔCT(BB011) (PD-1): −0.225
- ΔCT(BB013) (PD-1): 4.57
- ΔΔCT(BB013) (PD-1): −0.175
- ΔCT(CMV001) (PD-1): 1.165
- ΔΔCT(CMV001) (PD-1): −3.915

Sequence: HVRVSQPSLILVSQY [3DR, human CMV pp65-derived class II peptide, Human (DRB1)]
- stimulation index ([1]; first of two CMV+ healthy donors (FIG. 3)): 83.05
- proliferation, counts per minute ([1]; first of two CMV+ healthy donors (FIG. 3; presumably Donor SA005)): 30,231.67 cpm
- stimulation index ([1]; second of two CMV+ healthy donors (FIG. 3)): 147.03
- proliferation, counts per minute ([1]; second of two CMV+ healthy donors (FIG. 3; presumably Donor SA006)): 49,648.33 cpm
- functional response (proliferation data) ([1]; summary in words): leads to a functional response
- immunogenicity (reflected by increased TNFα), CMV-infected subject vs healthy CMV+ subject (enriched CD4 cells): greater than in a healthy CMV+ subject
- expression of TNFα in CD4 cells (enriched CD4 cells; donor not given): 34.58%
- TNFα stimulation (FACS data) (enriched CD4 cells): peptide-specific TNFα and IFNg stimulation
- immunogenicity reflected by TNFα (enriched CD4 cells; [4]): increased TNFα and IFNg
- immunogenicity (reflected by increased IFNg), CMV-infected subject vs healthy CMV+ subject (CD4+ T cell effectors): greater than in a healthy CMV+ subject
- IFNg stimulation (FACS data) (CD4+ T cell effectors): peptide-specific TNFα and IFNg stimulation
- immunogenicity reflected by IFNg (CD4+ T cell effectors; [4]): increased TNFα and IFNg
- surface expression of PD-1, CMV-infected subject vs healthy CMV+ subject [2]: more surface expression of PD-1
- ΔCT (BB008) (PD-1): 5.635
- ΔΔCT(BB008) (PD-1): −0.765
- ΔCT (BB011) (PD-1): 4.08
- ΔΔCT(BB011) (PD-1): 0.51
- ΔCT(BB013) (PD-1): 5.995
- ΔΔCT(BB013) (PD-1): 1.25
- ΔCT(CMV001) (PD-1): 2.545
- ΔΔCT(CMV001) (PD-1): −2.535

Sequence: MISVLGPISGHVLKA [2DR, human CMV pp65-derived class II peptide, Human (DRB1)]
- ΔCT (BB008) (PD-1): 5.525
- ΔΔCT(BB008) (PD-1): −0.875
- ΔCT (BB011) (PD-1): 2.94
- ΔΔCT(BB011) (PD-1): −0.63
- ΔCT(BB013) (PD-1): 5.26
- ΔΔCT(BB013) (PD-1): 0.515
- ΔCT(CMV001) (PD-1): 5.005
- ΔΔCT(CMV001) (PD-1): −0.075

Sequence: MSIYVYALPLKMLNI [1DR, human CMV pp65-derived class II peptide, Human (DRB1)]
- proliferation, counts per minute [1, 3]: 10,201 cpm
- stimulation index ([1]; FIG. 1): 30
- expression of IL-2 as compared to no peptide (enriched CD4+ cells): stimulate expression of IL-2
- expression of IL-2 in CD4+ cells (enriched CD4+ cells): 39.58%
- immunogenicity (reflected by increased TNFα), CMV-infected subject vs healthy CMV+ subject (enriched CD4 cells): greater than in a healthy CMV+ subject
- TNFα synthesis as compared to control (enriched CD4 cells): stimulate TNFα synthesis
- expression of TNFα in CD4 cells (enriched CD4 cells; donor SA005): 15.9%
- TNFα stimulation (FACS data) (enriched CD4 cells): peptide-specific TNFα and IFNg stimulation
- immunogenicity reflected by TNFα (enriched CD4 cells; [4]): increased TNFα and IFNg
- immunogenicity reflected by TNFα (enriched CD4 cells; [5]): increased TNFα and IFNg
- immunogenicity (reflected by increased IFNg), CMV-infected subject vs healthy CMV+ subject (CD4+ T cell effectors): greater than in a healthy CMV+ subject
- IFNg stimulation (FACS data) (CD4+ T cell effectors): peptide-specific TNFα and IFNg stimulation
- immunogenicity reflected by IFNg (CD4+ T cell effectors; [4]): increased TNFα and IFNg
- immunogenicity reflected by IFNg (CD4+ T cell effectors; [5]): increased TNFα and IFNg
- surface expression of PD-1, CMV-infected subject vs healthy CMV+ subject [2]: more surface expression of PD-1
- surface expression of PD-L1, CMV-infected subject vs healthy CMV+ subject (PD-L1 (a PD-1 ligand)): more surface expression of PD-L1
- surface expression of PD-L2, CMV-infected subject vs healthy CMV+ subject (PD-L2 (a PD-1 ligand)): more surface expression of PD-L2
- ΔCT (BB008) (PD-1): 5.385
- ΔΔCT(BB008) (PD-1): −1.015
- ΔCT (BB011) (PD-1): 3.67
- ΔΔCT(BB011) (PD-1): 0.1
- ΔCT(BB013) (PD-1): 5.74
- ΔΔCT(BB013) (PD-1): 0.995
- ΔCT(CMV001) (PD-1): 3.635
- ΔΔCT(CMV001) (PD-1): −1.445

Sequence: SGKLFMHVTLGSDVE [5DR, human CMV pp65-derived class II peptide, Human (DRB1)]
- surface expression of PD-L1, CMV-infected subject vs healthy CMV+ subject (PD-L1 (a PD-1 ligand)): more surface expression of PD-L1
- surface expression of PD-L2, CMV-infected subject vs healthy CMV+ subject (PD-L2 (a PD-1 ligand)): more surface expression of PD-L2
- ΔCT (BB008) (PD-1): 6.26
- ΔΔCT(BB008) (PD-1): −0.14
- ΔCT (BB011) (PD-1): 3.97
- ΔΔCT(BB011) (PD-1): 0.4
- ΔCT(BB013) (PD-1): 6.73
- ΔΔCT(BB013) (PD-1): 1.985
- ΔCT(CMV001) (PD-1): 3.53
- ΔΔCT(CMV001) (PD-1): −1.55

Sequence: YTSAFVFPT [CMV65182-190, human CMV pp65-derived class I peptide, Human (A2)]
- immunogenicity among the class I peptides (CD8+ T cell effectors; IFNγ ELISA): most immunogenic
- IFNγ measured by ELISA (mean) (CD8+ T cell effectors; class I peptides, T cells from CMV-positive healthy donors): 1999 pg/mL
